Measurements published in the supplement of paper PMC10307832.

Tests used:
Test in all cases: relative viability (nuclei count vs DMSO), 5 days (fraction); higher = more cells survive
Sulindac + Bortezomib = compound: CC1=C(CC(=O)O)c2cc(F)ccc2/C1=C\c1ccc([S+](C)[O-])cc1 [Sulindac] + CC(C)C[C@H](NC(=O)[C@H](Cc1ccccc1)NC(=O)c1cnccn1)B(O)O [Bortezomib] (partner 0.002 µM)
Outline: (§1)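 One day after seeding in 1536-well plates, lung cancer cell lines were dosed by pin tool. Dosing was either single-drug or a fixed anchor-drug dose plus five library-drug doses (not always all listed) in √10 steps. After 5 days, nuclei were stained in one fix-and-stain step and counted on 4× images, and relative viability is the nuclei count of treated wells over that of vehicle wells, given as the median of duplicate plates.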

[1] = compound: CN[C@@H]1C[C@H]2O[C@@](C)([C@@H]1OC)n1c3ccccc3c3c4c(c5c6ccccc6n2c5c31)C(=O)NC4 [Staurosporine] + CC(C)C[C@H](NC(=O)[C@H](Cc1ccccc1)NC(=O)c1cnccn1)B(O)O [Bortezomib] (partner 0.002 µM)
Outline: as §1

[2] = compound: CN[C@@H]1C[C@H]2O[C@@](C)([C@@H]1OC)n1c3ccccc3c3c4c(c5c6ccccc6n2c5c31)C(=O)NC4 [Staurosporine] + C[C@@H](Oc1cc(-c2cnn(C3CCNCC3)c2)cnc1N)c1c(Cl)ccc(F)c1Cl [Crizotinib] (partner 1 µM)
Outline: as §1

[3] = compound: CN[C@@H]1C[C@H]2O[C@@](C)([C@@H]1OC)n1c3ccccc3c3c4c(c5c6ccccc6n2c5c31)C(=O)NC4 [Staurosporine] + Cc1nc(Nc2ncc(C(=O)Nc3c(C)cccc3Cl)s2)cc(N2CCN(CCO)CC2)n1 [Dasatinib] (partner 0.075 µM)
Outline: as §1

Cell Line	relative viability (Sulindac + Bortezomib; first compound 0.08 µM)	relative viability (Sulindac + Bortezomib; first compound 0.253 µM)	relative viability (Sulindac + Bortezomib; first compound 2.53 µM)	relative viability (Sulindac + Bortezomib; first compound 8 µM)	relative viability ([1]; first compound 0.005 µM)	relative viability ([1]; first compound 0.01581 µM)	relative viability ([1]; first compound 0.05 µM)	relative viability ([1]; first compound 0.1581 µM)	relative viability ([1]; first compound 0.5 µM)	relative viability ([2]; first compound 0.01581 µM)	relative viability ([2]; first compound 0.05 µM)	relative viability ([2]; first compound 0.1581 µM)	relative viability ([2]; first compound 0.5 µM)	relative viability ([3]; first compound 0.005 µM)	relative viability ([3]; first compound 0.01581 µM)	relative viability ([3]; first compound 0.05 µM)	relative viability ([3]; first compound 0.1581 µM)	relative viability ([3]; first compound 0.5 µM)	relative viability (Sulindac + Bortezomib; first compound 0.8 µM)	relative viability ([2]; first compound 0.005 µM)
NCI-H1792	1.24	0.995	0.987	1.24	1.05	0.797	0.372	0.182	0.196	0.822	0.418	0.154	0.16	0.897	0.639	0.451	0.359	0.289		
NCI-H2347	0.884	0.97	0.86	1.11	1.21	0.443	0.359	0.413	0.402	0.353	0.364	0.415	0.449	0.226	0.212	0.19	0.233	0.232	0.704	0.559
ABC-1	0.328	0.281	0.311	0.31	0.264	0.232	0.247	0.187	0.185	0.285	0.149	0.0998	0.0958	0.341	0.193	0.167	0.109	0.139	0.279	0.43
201T	1.12	1.1	1.12	1.08	1.13	1.1	1.04	0.911	0.747	0.994	0.962	0.847	0.724	0.55		0.544	0.402	0.279	1.06	1.03
NCI-H1755	1.25	1.03	1.01	1.04	0.788	0.364	0.251	0.171	0.157	0.352	0.179	0.176	0.163	0.229	0.206	0.149		0.169	0.85	0.569
NCI-H647	1.02	1.13	0.936	1.05	0.532	0.164	0.285	0.0743	0.0533	0.295	0.162	0.0569	0.0579	0.0983	0.0707	0.0669	0.073	0.0532	0.667	0.53
NCI-H1650	0.31	0.193	0.204	0.213	0.205	0.179	0.197	0.179	0.194	0.389	0.242	0.197	0.106	0.24	0.225	0.166	0.127	0.119	0.224	0.537
NCI-H1355	1.27	1.23	1.24	1.3	1.09	0.693	0.259	0.202	0.209	0.727	0.366	0.258	0.234	0.516	0.166	0.202	0.164	0.152	1.12	0.834
NCI-H1975	0.387	0.461	0.334	0.441	0.22	0.144	0.143	0.129		0.276	0.212	0.121	0.115	0.29	0.177	0.152	0.1	0.0812		0.369
BEN	0.829	0.889	0.748	0.947	0.698	0.528		0.253	0.163	0.754	0.473	0.379	0.266	0.288	0.288	0.356	0.236	0.167	0.714	1.22
NCI-H322M	1.22	1.33	1.3	1.38	1.3	1.14	0.993	0.78	0.742	0.666	0.654	0.558	0.433	0.365	0.401	0.324	0.277	0.273	1.19	0.98
HOP-62	0.913	1.03	0.809	0.564	0.976	0.495	0.186	0.0948	0.0922	0.741	0.134	0.144	0.0781	0.343	0.164	0.109	0.124	0.0982	1.02	1.02
HCC-366	1.9	1.06	1	1.33	1.13		0.208	0.0142	0.0141		0.171	0.0224	0.0156	0.981		0.22	0.0316	0.022	0.306	0.972
NCI-H2405	1.01	1.01	0.96	1.06	0.314	0.165	0.188	0.163	0.134	0.319	0.146	0.125	0.106	0.111	0.11	0.114	0.0659	0.0751	0.888	0.681
NCI-H1563	0.848	0.876	0.779	0.925	0.655	0.571	0.661	0.501	0.438	0.559	0.635	0.587	0.503	0.43	0.434	0.411	0.247	0.433	0.793	0.696
LXF-289	1.06	1.04	1.04	0.974	0.822		0.257	0.122	0.0797		0.258	0.0796	0.0672	0.119	0.068	0.112	0.0474	0.0343	0.991	0.751
NCI-H1734	1.01	0.937	0.914	1.25	0.741	0.316	0.251	0.127		0.4	0.279	0.165	0.132	0.309		0.136	0.1	0.116	0.731	0.627

Cell Line	relative viability (Sulindac + Bortezomib; first compound 0.08 µM)	relative viability (Sulindac + Bortezomib; first compound 0.253 µM)	relative viability (Sulindac + Bortezomib; first compound 2.53 µM)	relative viability (Sulindac + Bortezomib; first compound 8 µM)	relative viability ([1]; first compound 0.005 µM)	relative viability ([1]; first compound 0.01581 µM)	relative viability ([1]; first compound 0.05 µM)	relative viability ([1]; first compound 0.1581 µM)	relative viability ([1]; first compound 0.5 µM)	relative viability ([2]; first compound 0.01581 µM)	relative viability ([2]; first compound 0.05 µM)	relative viability ([2]; first compound 0.1581 µM)	relative viability ([2]; first compound 0.5 µM)	relative viability ([3]; first compound 0.005 µM)	relative viability ([3]; first compound 0.01581 µM)	relative viability ([3]; first compound 0.05 µM)	relative viability ([3]; first compound 0.1581 µM)	relative viability ([3]; first compound 0.5 µM)	relative viability (Sulindac + Bortezomib; first compound 0.8 µM)	relative viability ([2]; first compound 0.005 µM)
LU99A	1.22	1.09	0.91	1.19	0.985	0.389	0.318	0.271	0.172	0.308	0.253	0.157	0.118	0.353	0.227	0.176	0.191	0.112	1.11	0.391
RERF-LC-KJ	1.23	1.08	1.07	1.25	1.15	0.926	0.674	0.322	0.242	0.717	0.516	0.223	0.244	0.416	0.364	0.223	0.192	0.201	0.92	0.823
NCI-H2087	1.17	0.835	0.892	1.09	0.761	0.548	0.39	0.175	0.113	0.392	0.344	0.137	0.12	0.701	0.431	0.311	0.0727	0.0691	0.695	0.767
HCC-78	0.432	0.534	0.607	0.532	0.483	0.388	0.256	0.404	0.332	0.236	0.244	0.261	0.239	0.357	0.295	0.339	0.26	0.264	0.379	0.358
NCI-H2228	1.31	1.02	1.31	1.01	0.782	0.421	0.419	0.227	0.118	0.234	0.177	0.169	0.132	0.328	0.245	0.232	0.069	0.0624	0.45	0.292
H3255	0.714	0.684	0.891	0.916	0.357	0.228	0.337	0.162	0.136	0.495	0.25	0.174	0.0875	0.271	0.247	0.255	0.19	0.248	0.735	0.591
HCC-15	1.34	1.08	1.07	1.07	1.05		0.842	0.376	0.251		0.527	0.307	0.267	0.494		0.229	0.11	0.0769	0.676	0.795
NCI-H838	0.951	0.774	0.628	0.76	0.289	0.0982	0.133	0.15	0.0919	0.179	0.175	0.168	0.127	0.267	0.203	0.225	0.177	0.178	0.512	0.259
NCI-H2023	1.13	1.04	1	1.07	0.612	0.19	0.181	0.0797	0.0526	0.288	0.132	0.0749	0.0599	0.365	0.198	0.126	0.0785	0.0455	0.666	0.262
ChaGo-K-1	1.07	1.1	0.882	1.35	0.992		0.86	0.243	0.222		0.819	0.256	0.203	0.621	0.491	0.475	0.147	0.128	0.885	1.14
COR-L23	1.17	1.14	1.2	1.23	0.69	0.282	0.272	0.104	0.0851	0.303	0.118	0.0765	0.0558	0.309	0.186	0.17	0.112	0.0512		0.369
EMC-BAC-2	1.14	1.1	1.06	1.08	0.564	0.564	0.224	0.178	0.137	0.215	0.132	0.177	0.137	0.213	0.197	0.198	0.167	0.152	0.824	0.452
LCLC-103H	1.24	1.11	1.05	1.21	1.03	0.613	0.364	0.274	0.251	0.741	0.564	0.318	0.258	0.307	0.108	0.113	0.134	0.103	0.948	1.1
NCI-H460		1.19	1.12	1.67	1.08	0.733	0.463	0.0074	0.0085	0.677	0.0267	0.0065	0.0073	0.575	0.27	0.375	0.0523	0.009		0.708
NCI-H3122	1.05	1.01	1.04	1.02	1.04	0.355	0.947	0.821	0.362	0.465	0.59	0.32	0.318	0.861		0.756	0.232	0.0614	1.1	0.443
NCI-H2126	1.2	1.15	1.2	1.19	1.1	0.817	0.777	0.371	0.387	0.8	0.635	0.486	0.407	0.501	0.275	0.301	0.257	0.222	1.06	0.994
